Experimental data reported in patent publication US10654818B2, “Furane derivatives as inhibitors of ATAD2” (BAYER PHARMA AKTIENGESELLSCHAFT, priority 2015, dated 2020).

Legend:
[1] = biological target: T1, recombinant, N-terminally GST-tagged ATAD2 bromodomain amino acids 981-1108 (Homo sapiens, UniProt Q6PL18); assay: TR-FRET assay: disruption of the interaction between ATAD2 and acetylated Histone H4 (Ac-H4) peptide; format: binding; details: inhibition of ATAD2/Ac-H4 complex formation; 10 nM ATAD2, 50 nM Ac-H4 peptide
T1 construct: ATAD2 bromodomain amino acids 981-1108; made in house; host or cells: E. coli
T1 sequence (Q6PL18 981-1108): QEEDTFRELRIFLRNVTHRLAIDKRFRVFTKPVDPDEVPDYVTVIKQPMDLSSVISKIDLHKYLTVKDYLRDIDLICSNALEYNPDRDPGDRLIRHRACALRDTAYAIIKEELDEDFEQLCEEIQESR
In short: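 10 nM protein (final) pre-incubated 10 min at 22 °C with compound (0.1 nM-20 μM, 11 points, duplicate), then 50 nM biotinylated Ac-H4 peptide plus anti-GST-XL665/streptavidin-Eu added for 1 h at 22 °C in HEPES pH 7.5 buffer. 665/622 nm emission ratio read; IC50 from 4-parameter fit of normalized inhibition.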

MCF7 breast cancer cells = assay: Cell proliferation assay (alamarBlue), MCF7; format: cell-based; details: Homo sapiens, 72 h incubation, GI50 = half-maximal growth inhibition
Experimental: (§1) The effect of ATAD2 inhibitory compounds on cancer cell proliferation might be measured as below. For example; MCF7 breast cancer cells might be seeded into 96-well microtiter plates at 2000 cells/well in 90 μl cell culture media (RPMI 1640, 10% FCS, 2 mM L-Glutamine, 10 μg/ml human Insulin, […]) and incubated for 24 h at 37° C. and 5% CO2. Note, the culturing conditions might vary from cell line to cell line depending on their standard culturing conditions. Compounds might be then delivered to the microtiter assay plates and, following a 72 h long incubation period at 37° C. and 5% CO2, the viability of the cells might be measured with addition of alamarBlue® (Invitrogen) to the medium in Victor X3 Multilabel Plate Reader (Perkin Elmer).
(§2) GI50 means half-maximal growth inhibition.

NCl-H526 lung cancer = assay: Cell proliferation assay (alamarBlue), NCl-H526; format: cell-based; details: GI50 = half-maximal growth inhibition
Experimental: as §1, §2

Row | Compound | IC50 [1] [nM] | GI50 (MCF7 breast cancer cells) [nM] | GI50 (NCl-H526 lung cancer) [nM]
1 | Cc1ccc([C@@H](C)NCc2ccc(-c3ccc(Cl)c(C(=O)N[C@@H](CN[C@H]4CC[C@@H](N)CC4)Cc4ccc(C#N)cc4)c3)o2)cc1 (single isomer, unassigned) [Example 71] | 107 | 3180 | 1250
2 | Cc1ccc([C@@H](C)NCc2ccc(-c3ccc(Cl)c(C(=O)N[C@@H](CO)Cc4ccc(C#N)cc4)c3)o2)cc1 [Example 4, 2-chloro-N-[(2R)-1-(4-cyanophenyl)-3-hydroxypropan-2-yl]-5-[5-({[(1R)-1-(4-methylphenyl)ethyl]amino}methyl)-2-furyl]benzamide] | 393 | 11500 | 15400
3 | Cc1ccc([C@@H](C)NCc2ccc(-c3ccc(Cl)c(C(=O)N[C@@H](CCNCC4CCN(C)CC4)Cc4ccc(C#N)cc4)c3)o2)cc1 [Example 33, 2-chloro-N-[(2R)-1-(4-cyanophenyl)-4-{[(1-methylpiperidin-4-yl)methyl]amino}butan-2-yl]-5-[5-({[(1R)-1-(4-methylphenyl)ethyl]amino}methyl)-2-furyl]benzamide] | 184 | 1420 | 1250
4 | Cc1ccc([C@@H](C)NCc2ccc(-c3ccc(Cl)c(C(=O)N[C@@H](CCN4CC5(CN(C)C5)C4)Cc4ccc(C#N)cc4)c3)o2)cc1 [Example 36, 2-chloro-N-[(2R)-1-(4-cyanophenyl)-4-(6-methyl-2,6-diazaspiro[3.3]hept-2-yl)butan-2-yl]-5-[5-({[(1R)-1-(4-methylphenyl)ethyl]amino}methyl)-2-furyl]benzamide] | 186 | 1280 | 1290
5 | Cc1ccc([C@@H](C)NCc2ccc(-c3ccc(Cl)c(C(=O)N[C@@H](C)Cc4ccc(C#N)cc4)c3)o2)cc1 [Example 42, 2-chloro-N-[(2S)-1-(4-cyanophenyl)propan-2-yl]-5-[5-({[(1R)-1-(4-methylphenyl)ethyl]amino}methyl)-2-furyl]benzamide] | 1100 | 11900 | > 30000
6 | Cc1ccc([C@@H](C)NCc2ccc(-c3ccc(Cl)c(C(=O)N[C@@H](CN)Cc4ccc(C#N)cc4)c3)o2)cc1 [Example 53, N-[(2R)-1-amino-3-(4-cyanophenyl)propan-2-yl]-2-chloro-5-[5-({[(1R)-1-(4-methylphenyl)ethyl]amino}methyl)-2-furyl]benzamide] | 273 | 2510 | 3600
7 | Cc1ccc([C@@H](C)NCc2ccc(-c3ccc(Cl)c(C(=O)N[C@@H](CNC[C@@H]4[C@H]5CNC[C@@H]45)Cc4ccc(C#N)cc4)c3)o2)cc1 [Example 66, N-[(2R)-1-{[(1R,5S,6r)-3-azabicyclo[3.1.0]hex-6-ylmethyl]amino}-3-(4-cyanophenyl)propan-2-yl]-2-chloro-5-[5-({[(1R)-1-(4-methylphenyl)ethyl]amino}methyl)-2-furyl]benzamide] | 245 | 3760 | 5100
8 | CC(C)(NCc1ccc(-c2ccc(Cl)c(C(=O)N[C@@H](CN)Cc3ccc(C#N)cc3)c2)o1)c1ccc(C(F)(F)F)cc1 [Example 74, N-[(2R)-1-amino-3-(4-cyanophenyl)propan-2-yl]-2-chloro-5-{5-[({2-[4-(trifluoro-methyl)phenyl]propan-2-yl}amino)methyl]-2-furyl}benzamide] | 671 | – | –
9 | C[C@@H](NCc1ccc(-c2ccc(Cl)c(C(=O)N[C@@H](CN)Cc3ccc(C#N)cc3)c2)o1)c1ccc(C(F)(F)F)cc1 [Example 75, N-[(2R)-1-amino-3-(4-cyanophenyl)propan-2-yl]-2-chloro-5-{5-[({(1R)-1-1-[4-(trifluoromethyl)phenyl]ethyl}amino)methyl]-2-furyl}benzamide] | 567 | – | –
10 | Cc1ccc([C@@H](C)NCc2ccc(-c3cc(F)c(Cl)c(C(=O)N[C@@H](CO)Cc4ccc(C#N)cc4)c3)o2)cc1 [Example 77, 2-chloro-N-[(2R)-1-(4-cyanophenyl)-3-hydroxypropan-2-yl]-3-fluoro-5-[5-({[(1R)-1-(4-methylphenyl)ethyl]amino}methyl)-2-furyl]benzamide] | 598 | – | –
11 | Cc1ccc([C@@H](C)NCc2ccc(-c3cc(C(=O)N[C@@H](CO)Cc4ccc(C#N)cc4)c(Cl)cc3Cl)o2)cc1 [Example 78, 2,4-dichloro-N-[(2R)-1-(4-cyanophenyl)-3-hydroxypropan-2-yl]-5-[5-({[(1R)-1-(4-methylphenyl)ethyl]amino}methyl)-2-furyl]benzamide] | 1230 | – | –
12 | Cc1ccc([C@@H](C)NCc2ccc(-c3cc(C(=O)N[C@@H](CO)Cc4ccc(C#N)cc4)ccc3C#N)o2)cc1 [Example 79, 4-cyano-N-[(2R)-1-(4-cyanophenyl)-3-hydroxypropan-2-yl]-3-[5-({[(1R)-1-(4-methylphenyl)ethyl]amino}methyl)-2-furyl]benzamide] | 1400 | – | –
13 | COc1cc(C)c(C(=O)N[C@@H](CO)Cc2ccc(C#N)cc2)cc1-c1ccc(CN[C@H](C)c2ccc(C)cc2)o1 [Example 80, N-[(2R)-1-(4-cyanophenyl)-3-hydroxypropan-2-yl]-4-methoxy-2-methyl-5-[5-({[(1R)-1-(4-methylphenyl)ethyl]amino}methyl)-2-furyl]benzamide] | 407 | – | –
14 | COc1cc(Cl)c(C(=O)N[C@@H](CO)Cc2ccc(C#N)c(C)c2)cc1-c1ccc(CN[C@H](C)c2ccc(C)cc2)o1 [Example 82] | 350 | – | –
15 | COc1cc(Cl)c(C(=O)N[C@@H](CN)Cc2ccc(C#N)cc2)cc1-c1ccc(CN[C@H](C)c2ccc(C)cc2)o1 [Example 83, N-[(2R)-1-amino-3-(4-cyanophenyl)propan-2-yl]-2-chloro-4-methoxy-5-[5-({[(1R)-1-(4-methylphenyl)ethyl]amino}methyl)-2-furyl]benzamide] | 233 | – | –
16 | COc1cc(Cl)c(C(=O)N[C@@H](CN)Cc2ccc(C#N)c(C)c2)cc1-c1ccc(CN[C@H](C)c2ccc(C)cc2)o1 [Example 84, N-[(2R)-1-amino-3-(4-cyano-3-methylphenyl)propan-2-yl]-2-chloro-4-methoxy-5-[5-({[(1R)-1-(4-methylphenyl)ethyl]amino}methyl)-2-furyl]benzamide] | 270 | – | –
17 | COc1cc(Cl)c(C(=O)N[C@H](Cc2ccc(C#N)cc2)C(=O)N[C@H]2CC[C@H](N)CC2)cc1-c1ccc(CN[C@H](C)c2ccc(C)cc2)o1 [Example 85, N-(trans-4-aminocyclohexyl)-Nα-{2-chloro-4-methoxy-5-[5-({[(1R)-1-(4-methylphenyl)ethyl]amino}methyl)-2-furyl]benzoyl}-4-cyano-D-phenylalaninamide] | 415 | – | –
18 | COc1cc(Cl)c(C(=O)N[C@@H](CN[C@H]2CC[C@@H](N)CC2)Cc2ccc(C#N)cc2)cc1-c1ccc(CN[C@H](C)c2ccc(C)cc2)o1 [Example 87, N-[(2R)-1-[(4-aminocyclohexyl)amino]-3-(4-cyanophenyl)propan-2-yl]-2-chloro-4-methoxy-5-[5-({[(1R)-1-(4-methylphenyl)ethyl]amino}methyl)-2-furyl]benzamide] | 216 | – | –
19 | COc1cc(Cl)c(C(=O)N[C@@H](CN[C@H]2CC[C@@H](N)CC2)Cc2ccc(C#N)c(C)c2)cc1-c1ccc(CN[C@H](C)c2ccc(C)cc2)o1 [Example 88, N-[(2R)-1-[(4-aminocyclohexyl)amino]-3-(4-cyano-3-methylphenyl)propan-2-yl]-2-chloro-4-methoxy-5-[5-({[(1R)-1-(4-methylphenyl)ethyl]amino}methyl)-2-furyl]-benzamide] | 128 | – | –
20 | CNC(=O)C[C@@H](Cc1ccc(C#N)cc1)NC(=O)c1cc(-c2ccc(CN[C@H](C)c3ccc(Cl)cc3)o2)ccc1Cl [Example 89, 2-chloro-5-[5-({[(1R)-1-(4-chlorophenyl)ethyl]amino}methyl)-2-furyl]-N-[(2R)-1-(4-cyanophenyl)-4-(methylamino)-4-oxobutan-2-yl]benzamide] | 2060 | – | –
21 | CNC(=O)C[C@@H](Cc1ccc(C#N)cc1)NC(=O)c1ccc(C#N)c(-c2ccc(CN[C@H](C)c3ccc(C)cc3)o2)c1 [Example 91] | 13400 | – | –
22 | CNC(=O)C[C@@H](Cc1ccccc1)NC(=O)c1cc(-c2ccc(CN[C@H](C)c3ccc(C)cc3)o2)ccc1Cl [Example 92] | 8370 | – | –
23 | CNC(=O)C[C@@H](Cc1ccc(C#N)cc1)NC(=O)c1cc(-c2ccc(CNC(C)(C)c3ccccc3)o2)ccc1Cl [Example 93] | 7690 | – | –
24 | CNC(=O)C[C@@H](Cc1ccc(C#N)cc1)NC(=O)c1cc(-c2ccc(CNC(C)(C)c3ccc(C)cc3)o2)ccc1Cl [Example 94] | 2980 | – | –
25 | CC(C)(NCc1ccc(-c2ccc(Cl)c(C(=O)NC(Cc3ccc(C#N)cc3)C(N)=O)c2)o1)c1ccc(Cl)cc1 (stereo not shown) [Example 95] | 2820 | – | –
26 | Cc1ccc([C@@H](C)NCc2ccc(-c3ccc(Cl)c(C(=O)N[C@@H](CO)Cc4ccccc4)c3)o2)cc1 [Example 96] | 2650 | – | –
